Test results reported in patent US12533313B2, “Inhalable liposomal sustained release composition for use in treating pulmonary diseases” (INSPIRMED CORP., priority 2018, dated 2026).
“And” between values parts separate entries of the source, which are not always exact repeats. Equal values may be shown once.

Key:
[1] = Lung retention study of liposomal TKI in healthy mice; format: in vivo; details: IT, 3.74 mg/mL, after two hours
Procedure: (§1) A lung retention study of liposomal TKI in healthy mice was conducted to compare the residence times of free form versus liposomal TKI formulations in the mouse lung.

[2] = test system: C57BL/6 mice; test: Observations of mice (mortality) during lung retention study; format: in vivo; details: healthy mice, IT 50 μL, 3.74 mg/mL nintedanib
Procedure: as §1

[3] = Lung retention of nintedanib in an IPF animal model; format: in vivo; details: fibrotic mice, once-daily oral dosing of 60 mg/kg
Procedure: First, pulmonary fibrosis was induced by IT instillation of 2.5 mg/kg bleomycin to each mouse. […] Q2D×2 signifies one dose administered every other day for a total of two doses. Blood and lung tissue samples were collected at predetermined time points (Table 7).

[4] = test system: bleomycin-induced pulmonary fibrosis in mice; test: Efficacy of liposomal and oral nintedanib in an IPF animal model, histopathological evaluation of lung tissue; format: in vivo; details: 60 mg/kg, oral, QD ×10, Day 21, listed as free nintedanib
Procedure: Q2D×4 signifies one dose administered every other day on day 7, 9, 15, and 17. QD×10 signifies mice received once daily dosing on day 7, 8, 9, 10, 11, 14, 15, 16, 17, and 18. Blood and lung tissue samples were collected on day 21.
Efficacy was determined by histopathological evaluation of mouse lung tissue.
Degree of lesions stained with HE was graded from one to five depending on severity: […]

[5] = test system: IPF; details: cited from earlier work

## COC(=O)c1ccc2c(c1)NC(=O)/C2=C(\Nc1ccc(N(C)C(=O)CN2CCN(C)CC2)cc1)c1ccccc1 [nintedanib]
[1]
  Drug retained in the lung: almost none of the drug was retained in the lung
[2]
  Observation of surviving mice: mice were very weak)
[2]; deaths/mice
  Mortality: 2/9 (the 7 surviving
[3]
  Drug retention in mouse lung: no nintedanib was detected in lung tissue after just a few hours
[4]; per animal (No. 4 to 6)
  Mean score (fibrosis): ~2 and 2.0 and 1.4
[4]; single scores per animal (No. 4 to 6)
  Interstitial and subpleural, multifocal fibrosis scores: 2 (2=slight (1-25%)) (12×) and 1 (1=minimal (<1%)) (3×)
[5]; current therapeutic amount
  Undesired side effects of oral treatment: diarrhea (most frequent adverse event), nausea, stomach pain, liver problems, vomiting, decreased appetite, headache, weight loss, and high blood pressure
[5]; oral, 150 mg twice a day, clinical trials
  Reduction of lung function decline (increased forced vital capacity) compared to placebo: approximately 50%
